{"source": "patent EP3181574A1", "about": "“HIGHLY SOLUBLE REBAUDIOSIDE D” (Purecircle USA, priority 2010, dated 2012)", "key": {"[1]": {"details": "cited from earlier work"}, "[2]": {"details": "water, room temperature; cited from earlier work"}, "[3]": {"test": "Solubility of Rebaudioside D (crystalline vs amorphous) in water", "format": "physicochemical", "details": "for solubility: room temperature, % = grams soluble in 100 grams of solvent", "experimental": "Hereinafter, unless specified otherwise the solubility of material is determined in RO (reverse osmosis) water at room temperature. Where the solubility is expressed as \"%\" it to be understood as number of grams of material soluble in 100 grams of solvent.\n100g of crystalline Rebaudioside D, produced by PureCircle Sdn Bhd, with 98.1% purity (on anhydrous basis) was dissolved in 500 mL aqueous ethanol, containing 50% (vol.) ethanol. The solution was maintained at 50°C and dried using a YC-015 laboratory spray drier (Shanghai Pilotech Instrument & Equipment Co. Ltd., China) operating at 175°C inlet and 100°C outlet temperatures. […]"}, "[4]": {"details": "50°C, solution crystallized after cooling down to room temperature (20°C)"}, "[5]": {"details": "100°C, solution crystallized after cooling down to room temperature (20°C)"}}, "note": "Like-named read-outs stand apart in the source and are kept apart here."}
{"smiles": "C=C1C[C@@]23CC[C@H]4[C@@](C)(CCC[C@@]4(C)C(=O)O[C@@H]4O[C@H](CO)[C@@H](O)[C@H](O)[C@H]4O)[C@@H]2CC[C@]1(O[C@@H]1O[C@H](CO)[C@@H](O)[C@H](O[C@@H]2O[C@H](CO)[C@@H](O)[C@H](O)[C@H]2O)[C@H]1O[C@@H]1O[C@H](CO)[C@@H](O)[C@H](O)[C@H]1O)C3", "note": "[Form 1 Hydrate, Rebaudioside A]", "values": [{"measurement": "Rate of dissolution in H2O at 25°C", "setting": "[1]; in 60 minutes", "result": "Very low (<0.2% in 60 minutes)"}]}
{"smiles": "C=C1C[C@@]23CC[C@H]4[C@@](C)(CCC[C@@]4(C)C(=O)O[C@@H]4O[C@H](CO)[C@@H](O)[C@H](O)[C@H]4O)[C@@H]2CC[C@]1(O[C@@H]1O[C@H](CO)[C@@H](O)[C@H](O[C@@H]2O[C@H](CO)[C@@H](O)[C@H](O)[C@H]2O)[C@H]1O[C@@H]1O[C@H](CO)[C@@H](O)[C@H](O)[C@H]1O)C3", "note": "[Form 2 Anhydrous, Rebaudioside A]", "values": [{"measurement": "Rate of dissolution in H2O at 25°C", "setting": "[1]; in 5 minutes", "result": "Intermediate (<30% in 5 minutes)"}]}
{"smiles": "C=C1C[C@@]23CC[C@H]4[C@@](C)(CCC[C@@]4(C)C(=O)O[C@@H]4O[C@H](CO)[C@@H](O)[C@H](O)[C@H]4O)[C@@H]2CC[C@]1(O[C@@H]1O[C@H](CO)[C@@H](O)[C@H](O[C@@H]2O[C@H](CO)[C@@H](O)[C@H](O)[C@H]2O)[C@H]1O[C@@H]1O[C@H](CO)[C@@H](O)[C@H](O)[C@H]1O)C3", "note": "[Form 3 Solvate, Rebaudioside A]", "values": [{"measurement": "Rate of dissolution in H2O at 25°C", "setting": "[1]; in 5 minutes", "result": "High (>30% in 5 minutes)"}]}
{"smiles": "C=C1C[C@@]23CC[C@H]4[C@@](C)(CCC[C@@]4(C)C(=O)O[C@@H]4O[C@H](CO)[C@@H](O)[C@H](O)[C@H]4O)[C@@H]2CC[C@]1(O[C@@H]1O[C@H](CO)[C@@H](O)[C@H](O[C@@H]2O[C@H](CO)[C@@H](O)[C@H](O)[C@H]2O)[C@H]1O[C@@H]1O[C@H](CO)[C@@H](O)[C@H](O)[C@H]1O)C3", "note": "[Form 4 Amorphous, Rebaudioside A]", "values": [{"measurement": "Rate of dissolution in H2O at 25°C", "setting": "[1]; in 5 minutes", "result": "High (>35% in 5 minutes)"}]}
{"smiles": "C=C1C[C@@]23CC[C@H]4[C@@](C)(CCC[C@@]4(C)C(=O)O[C@@H]4O[C@H](CO)[C@@H](O)[C@H](O)[C@H]4O)[C@@H]2CC[C@]1(O[C@@H]1O[C@H](CO)[C@@H](O)[C@H](O[C@@H]2O[C@H](CO)[C@@H](O)[C@H](O)[C@H]2O)[C@H]1O[C@@H]1O[C@H](CO)[C@@H](O)[C@H](O)[C@H]1O)C3", "note": "[Rebaudioside A]", "values": [{"measurement": "thermodynamic equilibrium solubility", "setting": "[2]", "result": 0.8, "unit": "%"}]}
{"smiles": "C=C1C[C@@]23CC[C@H]4[C@@](C)(CCC[C@@]4(C)C(=O)O[C@@H]4O[C@H](CO)[C@@H](O)[C@H](O)[C@H]4O[C@@H]4O[C@H](CO)[C@@H](O)[C@H](O)[C@H]4O)[C@@H]2CC[C@]1(O[C@@H]1O[C@H](CO)[C@@H](O)[C@H](O[C@@H]2O[C@H](CO)[C@@H](O)[C@H](O)[C@H]2O)[C@H]1O[C@@H]1O[C@H](CO)[C@@H](O)[C@H](O)[C@H]1O)C3", "note": "[Rebaudioside D]", "values": [{"measurement": "solubility when heat is applied", "setting": "[3]; water, heated, upon cooling to room temperature crystallizes back out from the solution", "result": "up to 0.5%"}, {"measurement": "solubility", "setting": "[3]; water", "result": 0.05, "unit": "%"}]}
{"smiles": "C=C1C[C@@]23CC[C@H]4[C@@](C)(CCC[C@@]4(C)C(=O)O[C@@H]4O[C@H](CO)[C@@H](O)[C@H](O)[C@H]4O[C@@H]4O[C@H](CO)[C@@H](O)[C@H](O)[C@H]4O)[C@@H]2CC[C@]1(O[C@@H]1O[C@H](CO)[C@@H](O)[C@H](O[C@@H]2O[C@H](CO)[C@@H](O)[C@H](O)[C@H]2O)[C@H]1O[C@@H]1O[C@H](CO)[C@@H](O)[C@H](O)[C@H]1O)C3", "note": "[amorphous Reb D, Rebaudioside D]", "values": [{"measurement": "Solubility, % (in water)", "setting": "[3]; 20°C", "result": 0.1, "unit": "%"}, {"measurement": "Solubility, % (in water)", "setting": "[3]; [4]", "result": 0.5, "unit": "%"}, {"measurement": "Solubility, % (in water)", "setting": "[3]; [5]", "result": 1.1, "unit": "%"}, {"measurement": "solubility", "setting": "[3]; water", "result": 0.2, "unit": "%"}]}
{"smiles": "C=C1C[C@@]23CC[C@H]4[C@@](C)(CCC[C@@]4(C)C(=O)O[C@@H]4O[C@H](CO)[C@@H](O)[C@H](O)[C@H]4O[C@@H]4O[C@H](CO)[C@@H](O)[C@H](O)[C@H]4O)[C@@H]2CC[C@]1(O[C@@H]1O[C@H](CO)[C@@H](O)[C@H](O[C@@H]2O[C@H](CO)[C@@H](O)[C@H](O)[C@H]2O)[C@H]1O[C@@H]1O[C@H](CO)[C@@H](O)[C@H](O)[C@H]1O)C3", "note": "[crystalline Rebaudioside D, Rebaudioside D]", "values": [{"measurement": "Solubility, % (in water)", "setting": "[3]; 20°C", "result": 0.05, "unit": "%"}, {"measurement": "Solubility, % (in water)", "setting": "[3]; [4]", "result": 0.2, "unit": "%"}, {"measurement": "Solubility, % (in water)", "setting": "[3]; [5]", "result": 0.5, "unit": "%"}, {"measurement": "solubility", "setting": "[3]; water", "result": 0.05, "unit": "%"}]}
